Test results from US11642348B2, “Substituted benzene compounds” (Epizyme, Inc., priority 2012, dated 2023).

Assays:
[1] = test system: H3K27me3 in WSU-DLCL2 cells; experiment: WSU-DLCL2 methylation assay (H3K27me3 ELISA); type: cell-based; conditions: Homo sapiens, WSUDLCL2, Table 3B, 96 hours, read-out: ELISA H3K27me3 IC50
WSU-DLCL2 cells = experiment: Cell proliferation analysis (WSU-DLCL2, Cell Titer Glo); type: cell-based; conditions: Homo sapiens, WSUDLCL2, Table 3B, 6 days, read-out: WSU proliferation IC50
[2] = biological target: wild-type EZH2 (PRC2 complex) (Homo sapiens (Human), UniProt Q15910); experiment: PRC2 enzyme assay on peptide substrates (wild-type EZH2); conditions: read-out: WT EZH2 IC50; Table 3B; wild-type PRC2 enzyme, peptide substrate
wild-type EZH2 (PRC2 complex), sequence (Q15910 other isoform, or with tags, fused parts or gaps): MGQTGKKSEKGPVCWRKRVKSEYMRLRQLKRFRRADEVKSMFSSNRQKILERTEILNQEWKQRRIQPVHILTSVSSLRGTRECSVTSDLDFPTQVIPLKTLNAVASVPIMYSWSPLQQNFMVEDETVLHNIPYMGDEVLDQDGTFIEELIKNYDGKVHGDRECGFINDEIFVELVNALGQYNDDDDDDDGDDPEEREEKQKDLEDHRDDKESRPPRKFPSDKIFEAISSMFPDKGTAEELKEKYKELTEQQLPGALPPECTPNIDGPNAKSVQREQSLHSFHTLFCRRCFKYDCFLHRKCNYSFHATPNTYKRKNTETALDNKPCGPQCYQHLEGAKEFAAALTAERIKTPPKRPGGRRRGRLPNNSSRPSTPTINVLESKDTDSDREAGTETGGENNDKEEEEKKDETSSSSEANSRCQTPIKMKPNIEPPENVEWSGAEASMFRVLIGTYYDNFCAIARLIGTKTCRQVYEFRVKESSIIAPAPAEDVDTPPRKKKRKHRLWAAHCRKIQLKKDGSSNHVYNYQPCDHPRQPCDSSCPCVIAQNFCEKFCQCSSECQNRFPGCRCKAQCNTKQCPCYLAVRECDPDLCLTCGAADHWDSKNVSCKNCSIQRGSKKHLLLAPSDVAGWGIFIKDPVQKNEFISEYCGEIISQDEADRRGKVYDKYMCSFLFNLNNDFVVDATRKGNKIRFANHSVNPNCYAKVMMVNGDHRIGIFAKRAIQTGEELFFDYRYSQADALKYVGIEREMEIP
wild-type EZH2 (PRC2 complex), sequence (O75530 whole entry partner): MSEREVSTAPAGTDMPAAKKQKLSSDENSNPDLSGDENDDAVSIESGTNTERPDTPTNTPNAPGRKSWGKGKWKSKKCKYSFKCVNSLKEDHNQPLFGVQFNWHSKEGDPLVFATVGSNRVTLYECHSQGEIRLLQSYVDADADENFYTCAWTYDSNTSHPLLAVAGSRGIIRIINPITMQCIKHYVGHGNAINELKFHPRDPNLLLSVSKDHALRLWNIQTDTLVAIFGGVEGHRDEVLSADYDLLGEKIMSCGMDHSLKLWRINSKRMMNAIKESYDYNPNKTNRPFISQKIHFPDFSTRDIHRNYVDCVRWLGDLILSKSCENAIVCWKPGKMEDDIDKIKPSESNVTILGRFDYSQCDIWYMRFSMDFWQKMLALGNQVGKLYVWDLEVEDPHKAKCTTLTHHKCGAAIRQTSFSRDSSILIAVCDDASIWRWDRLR
wild-type EZH2 (PRC2 complex), sequence (Q15022 whole entry partner): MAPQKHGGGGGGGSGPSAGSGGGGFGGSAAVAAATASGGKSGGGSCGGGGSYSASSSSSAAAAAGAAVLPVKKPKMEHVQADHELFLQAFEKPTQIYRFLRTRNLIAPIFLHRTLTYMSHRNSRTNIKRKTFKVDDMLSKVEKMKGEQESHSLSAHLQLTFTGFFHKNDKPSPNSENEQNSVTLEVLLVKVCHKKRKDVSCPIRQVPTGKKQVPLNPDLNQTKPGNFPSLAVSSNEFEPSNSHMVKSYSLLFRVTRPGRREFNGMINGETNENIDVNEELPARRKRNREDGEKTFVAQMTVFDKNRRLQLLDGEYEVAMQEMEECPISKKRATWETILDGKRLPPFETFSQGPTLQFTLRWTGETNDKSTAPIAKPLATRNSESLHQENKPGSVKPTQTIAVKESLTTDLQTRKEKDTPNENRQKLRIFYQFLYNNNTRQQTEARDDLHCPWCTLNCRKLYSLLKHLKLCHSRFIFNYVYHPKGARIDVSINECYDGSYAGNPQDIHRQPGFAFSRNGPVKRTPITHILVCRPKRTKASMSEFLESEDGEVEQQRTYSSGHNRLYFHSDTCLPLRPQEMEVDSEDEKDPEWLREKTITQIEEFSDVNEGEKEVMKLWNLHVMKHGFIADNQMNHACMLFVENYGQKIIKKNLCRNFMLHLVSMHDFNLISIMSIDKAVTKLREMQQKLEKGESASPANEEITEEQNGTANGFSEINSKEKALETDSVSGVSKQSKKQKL
wild-type EZH2 (PRC2 complex), sequence (Q09028 whole entry partner): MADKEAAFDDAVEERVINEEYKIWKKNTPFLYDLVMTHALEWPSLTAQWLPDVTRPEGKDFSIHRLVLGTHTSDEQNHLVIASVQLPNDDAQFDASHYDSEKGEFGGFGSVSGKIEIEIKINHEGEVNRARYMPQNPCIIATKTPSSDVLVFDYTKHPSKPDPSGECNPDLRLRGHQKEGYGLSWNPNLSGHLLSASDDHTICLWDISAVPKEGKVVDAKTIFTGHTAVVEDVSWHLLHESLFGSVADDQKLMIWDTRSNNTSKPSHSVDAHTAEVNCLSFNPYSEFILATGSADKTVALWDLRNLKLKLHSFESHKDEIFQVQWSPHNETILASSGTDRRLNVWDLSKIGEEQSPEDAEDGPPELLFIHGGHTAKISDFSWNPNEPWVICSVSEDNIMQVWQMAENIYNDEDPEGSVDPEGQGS

SMILES	IC50 [1] [nM]	IC50 [2] [nM]	IC50 (WSU-DLCL2 cells) [nM]
CCN(c1cc(-c2ccc(CN3CCOCC3)nc2)cc(C(=O)NCc2c(C)cc(C)[nH]c2=O)c1C)C1C[C@@H](C)N[C@H](C)C1 (stereo partly drawn) [Compound 121]	13900	< 10	3830
CCN(c1cc(-c2ccc(CN3CCN(C)CC3)nc2)cc(C(=O)NCc2c(C)cc(C)[nH]c2=O)c1C)C1C[C@@H](C)N[C@H](C)C1 (stereo partly drawn) [Compound 122]	> 25000	< 10	7560
CCN(c1cc(-c2ccc(CN3CCNCC3)nc2)cc(C(=O)NCc2c(C)cc(C)[nH]c2=O)c1C)C1C[C@@H](C)N[C@H](C)C1 (stereo partly drawn) [Compound 123]	> 25000	< 10	7900
CCN(c1cc(-c2cnc(OC)cn2)cc(C(=O)NCc2c(C(C)C)cc(C)[nH]c2=O)c1C)C1CCOCC1 [Compound 126]	2030	< 10	906
CCN(c1cc(-c2cnc(OC(C)C)cn2)cc(C(=O)NCc2c(C)cc(C)[nH]c2=O)c1C)C1CCOCC1 [Compound 127]	525	< 10	717
CCN(c1cc(-c2cnc(C(F)(F)F)cn2)cc(C(=O)NCc2c(C)cc(C)[nH]c2=O)c1C)C1CCOCC1 [Compound 128]	1550	< 10	975
CCN(c1cc(-c2cnc(OC3CN(C)C3)cn2)cc(C(=O)NCc2c(C)cc(C)[nH]c2=O)c1C)C1CCOCC1 [Compound 131]	306	< 10	194
CCN(c1cc(-c2cnc(OC3CCN(C)CC3)cn2)cc(C(=O)NCc2c(C)cc(C)[nH]c2=O)c1C)C1CCOCC1 [Compound 132]	177	20	526
CCN(c1cc(-c2ccc(CN3CCCN(C)CC3)nc2)cc(C(=O)NCc2c(C)cc(C)[nH]c2=O)c1C)[C@H]1CC[C@H](N(C)C)CC1 [Compound 146]	161	< 10	217

Second part, led by results:

IC50 [1] [nM]	IC50 [2] [nM]	SMILES	IC50 (WSU-DLCL2 cells) [nM]
74.3	< 10	CCN(c1cc(-c2ccc(CN3CCC[C@H](O)C3)nc2)cc(C(=O)NCc2c(C)cc(C)[nH]c2=O)c1C)[C@H]1CC[C@H](N(C)C)CC1 [Compound 147]	116
504	< 10	CCN(c1cc(-c2ccc(CN3CC[C@H](O)C3)nc2)cc(C(=O)NCc2c(C)cc(C)[nH]c2=O)c1C)[C@H]1CC[C@H](N(C)C)CC1 [Compound 148, N-((4,6-Dimethyl-2-oxo-1,2-dihydropyridin-3-yl)methyl)-3-((4-trans-(dimethylamino)cyclohexyl)(ethyl)amino)-5-(6-(((S)-3-hydroxypyrrolidin-1-yl)methyl)pyridin-3-yl)-2-methylbenzamide]	243
20	< 10	CCN(c1cc(-c2cnc(N3CCN(C)CC3)cn2)cc(C(=O)NCc2c(C)cc(C)[nH]c2=O)c1C)[C@H]1CC[C@H](N(C)C)CC1 [Compound 149]	316
377	< 10	CCN(c1cc(-c2ccc(CN3CC[C@H](O)C3)nc2)cc(C(=O)NCc2c(C(C)C)cc(C)[nH]c2=O)c1C)[C@H]1CC[C@H](N(C)C)CC1 [Compound 150]	361
618	< 10	CCN(c1cc(-c2ccc(CN3CC(O)C3)nc2)cc(C(=O)NCc2c(C)cc(C)[nH]c2=O)c1C)[C@H]1CC[C@H](N(C)C)CC1 [Compound 151]	682
60	18	CCN(c1cc(-c2ccc(COC)nc2)cc(C(=O)NCc2c(C)cc(C)[nH]c2=O)c1C)[C@H]1CC[C@H](N(C)C)CC1 [Compound 152]	412
684	< 10	CCN(c1cc(-c2ccc(C(=O)NCCO)cc2)cc(C(=O)NCc2c(C(C)C)cc(C)[nH]c2=O)c1C)C1CCOCC1 [Compound 156]	890
